From patent publication US11209437B2, “Fluorescent probe and preparation method and use thereof” (Fluorescence Diagnosis (shanghai) Biotech Company Ltd., priority 2016, dated 2021) come the findings set out here.

Data set [1] is described as follows: Viscosity responsiveness: fluorescence emission spectra of probes in glycerol and methanol. In kind it is physicochemical. To be noted: for Emission wavelength: excited at maximum excitation wavelength of each probe; for Fluorescence ratio in glycerol to methanol: probe 1×10^−5 M. In a few lines:
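Each probe, from a 1×10^−2 M DMSO stock, was diluted to a final 1×10^−5 M in glycerol and in methanol. Fluorescence emission spectra were then recorded under identical conditions at each probe's maximum excitation wavelength.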

A further data set has as its target T1, SNAP protein tags (Homo sapiens, UniProt P16455, A127T/A154D/C150Q/C62A/E30R/G131K/G132T/G153L/K125A/K32I/L33F/M134L/N157G/Q115S/Q116H/R128A/R135S/S151G/S152D/S159E).
T1 sequence (P16455 1-182 E30R/K32I/L33F/C62A/Q115S/Q116H/K125A/A127T/R128A/G131K/G132T/M134L/R135S/C150Q/S151G/S152D/G153L/A154D/N157G/S159E): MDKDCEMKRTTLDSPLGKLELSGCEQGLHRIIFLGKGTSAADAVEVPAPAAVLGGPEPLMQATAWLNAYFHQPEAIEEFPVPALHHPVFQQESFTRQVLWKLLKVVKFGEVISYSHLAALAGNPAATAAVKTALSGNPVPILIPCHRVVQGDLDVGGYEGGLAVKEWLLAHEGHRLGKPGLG
As to the kind of experiment: Fluorescence activation of probe after incubation with corresponding protein tag (SNAP). In kind it is biochemical. The conditions noted are these: probe 5 μM, protein tag 10 μM, 37° C., 1 hr. A digest of the protocol: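 Probe (5 μM final) mixed with CLIP or SNAP protein tag (10 μM final) and incubated 1 hr at 37° C. Fluorescence intensity change measured by fluorescence spectrophotometer, with quantum yield of tag-bound probe determined.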

The nature of data set [2]: Fluorescence of free probe prior to binding to a protein tag. In kind it is physicochemical.

Turning to `CN(CCOC(=O)NCc1ccc(COc2nc(N)nc3[nH]cnc23)cc1)c1cc2c(s1)-c1sc(/C=C(/C#N)C(=O)OC(C)(C)C)cc1[Si]2(C)C` [probe 74], in data set [1], the Emission wavelength was 680 nm and the “Fluorescence ratio in glycerol to methanol” value (from here on “Fluorescence ratio”) amounted to 297. In addition, at SNAP protein tags, the Fluorescence activation multiple is given as 311 and the “Quantum yield of probe bound to protein tag” value (from here on “Quantum yield of probe bound”) is listed as 0.78. The “Quantum yield of free probe” value in data set [2] is listed as 0.0025.
Consider `CN(CCOC(=O)NCc1ccc(COc2nc(N)nc3[nH]cnc23)cc1)c1cc2c(s1)-c1sc(/C=C(/C#N)c3nc4ccccc4o3)cc1[Si]2(C)C` [probe 75], for which, in data set [1], the Emission wavelength is given as 700 nm and the “Fluorescence ratio” value came out at 105. At SNAP protein tags, the Fluorescence activation multiple came to 211 and the “Quantum yield of probe bound” value is recorded as 0.44. Moreover, the “Quantum yield of free probe” value in data set [2] was 0.0021.
For `COCCNC(=O)/C(C#N)=C/c1ccc(-c2ccc(N(C)CCOC(=O)NCc3ccc(COc4nc(N)nc5[nH]cnc45)cc3)s2)s1` [probe 78] the same measures were 672 nm, 189, 369, 0.28 and below 0.001.
Take `CN(CCOC(=O)NCc1ccc(COc2nc(N)nc3[nH]cnc23)cc1)c1ccc(-c2ccc(/C=C(\C#N)c3nc4ccccc4s3)s2)s1` [probe 79]: in data set [1], the Emission wavelength was 681 nm and the “Fluorescence ratio” value was 298. Besides, at SNAP protein tags, the Fluorescence activation multiple came to 419 and the “Quantum yield of probe bound” value is 0.31. For the same molecule, the “Quantum yield of free probe” value in data set [2] is below 0.001.
As for `CC(C)(C)OC(=O)/C(C#N)=C/c1ccc2c(c1)SCCN2CCOC(=O)NCc1ccc(COc2nc(N)nc3[nH]cnc23)cc1` [probe 83], in data set [1], the Emission wavelength was found to be 515 nm and the “Fluorescence ratio” value stood at 103. Moreover, on SNAP protein tags, the Fluorescence activation multiple was 209 and the “Quantum yield of probe bound” value is reported as 0.18. For the same molecule, the “Quantum yield of free probe” value in data set [2] is below 0.001.
The matching figures for `N#C/C(=C\c1ccc2c(c1)SCCN2CCOC(=O)NCc1ccc(COc2nc(N)nc3[nH]cnc23)cc1)c1nc2ccccc2o1` [probe 85]: 535 nm, 187, 391, 0.15 and below 0.001.
`N#C/C(=C\c1ccc2c(c1)SCCN2CCOC(=O)NCc1ccc(COc2nc(N)nc3[nH]cnc23)cc1)c1nc2ccccc2s1` [probe 86]: in data set [1], the Emission wavelength amounted to 550 nm and the “Fluorescence ratio” value worked out at 214. Moreover, on SNAP protein tags, the Fluorescence activation multiple was 413 and the “Quantum yield of probe bound” value worked out at 0.17. The “Quantum yield of free probe” value in data set [2] is recorded as below 0.001.
For `CC1=CC(C)(C)N(CCOC(=O)NCc2ccc(COc3nc(N)nc4[nH]cnc34)cc2)c2ccc(/C=C(\C#N)C(=O)OC(C)(C)C)cc21` [probe 87] the same measures were 575 nm, 209, 515, 0.45 and below 0.001.
As to `CC1=CC(C)(C)N(CCOC(=O)NCc2ccc(COc3nc(N)nc4[nH]cnc34)cc2)c2ccc(/C=C(\C#N)c3nc4ccccc4s3)cc21` [probe 89], in data set [1], the Emission wavelength was 612 nm and the “Fluorescence ratio” value is on record as 129. In addition, on SNAP protein tags, the Fluorescence activation multiple came out at 421 and the “Quantum yield of probe bound” value came out at 0.32. In addition, in data set [2], the “Quantum yield of free probe” value is on record as below 0.001.
`CN(CCOC(=O)NCc1ccc(COc2nc(N)nc3[nH]cnc23)cc1)c1cc2c(s1)-c1sc(/C=C(/C#N)C(=O)O)cc1C2(C)C` [probe 98]: in data set [1], the Emission wavelength is 650 nm and the “Fluorescence ratio” value is reported as 182. Besides, at SNAP protein tags, the Fluorescence activation multiple is 893 and the “Quantum yield of probe bound” value is given as 0.78. For the same molecule, the “Quantum yield of free probe” value in data set [2] was below 0.001.
On to `CN(CCOC(=O)NCc1ccc(COc2nc(N)nc3[nH]cnc23)cc1)c1ccc(/C=C(\C#N)C(=O)O)cc1` [probe 101], for which, in data set [1], the Emission wavelength stood at 481 nm and the “Fluorescence ratio” value came out at 362. Further, on SNAP protein tags, the Fluorescence activation multiple was determined as 463 and the “Quantum yield of probe bound” value was 0.37. The “Quantum yield of free probe” value in data set [2] is given as below 0.001.
Regarding `N#C/C(=C\c1ccc2c(c1)SCCN2CCOC(=O)NCc1ccc(COc2nc(N)nc3[nH]cnc23)cc1)C(=O)O` [probe 103], in data set [1], the Emission wavelength was 515 nm and the “Fluorescence ratio” value came out at 321. Moreover, at SNAP protein tags, the Fluorescence activation multiple amounted to 651 and the “Quantum yield of probe bound” value was determined as 0.27. Also, the “Quantum yield of free probe” value in data set [2] is below 0.001.
For `CC1=CC(C)(C)N(CCOC(=O)NCc2ccc(COc3nc(N)nc4[nH]cnc34)cc2)c2ccc(/C=C(\C#N)C(=O)O)cc21` [probe 105] the same measures were 510 nm, 328, 549, 0.41 and below 0.001.
On to `CN(CCOC(=O)NCc1ccc(COc2nc(N)nc3[nH]cnc23)cc1)c1cc2sc(/C=C(\C#N)C(=O)O)cc2s1` [probe 107], for which, in data set [1], the Emission wavelength is given as 555 nm and the “Fluorescence ratio” value was determined as 526. Moreover, at SNAP protein tags, the Fluorescence activation multiple was 564 and the “Quantum yield of probe bound” value is recorded as 0.47. Further, the “Quantum yield of free probe” value in data set [2] is below 0.001.
For `CN(CCOC(=O)NCc1ccc(COc2nc(N)nc3[nH]cnc23)cc1)c1ccc(C#C/C=C(\C#N)C(=O)O)cc1` [probe 109] the same measures were 566 nm, 341, 546, 0.33 and below 0.001.
`CN(CCOC(=O)NCc1ccc(COc2nc(N)nc3[nH]cnc23)cc1)c1ccc2cc(/C=C(\C#N)C(=O)O)sc2c1` [probe 111]: in data set [1], the Emission wavelength is on record as 570 nm and the “Fluorescence ratio” value was 621. On SNAP protein tags, the Fluorescence activation multiple turned out to be 681 and the “Quantum yield of probe bound” value is on record as 0.49. In addition, the “Quantum yield of free probe” value in data set [2] is below 0.001.
For `CN(CCOC(=O)NCc1ccc(COc2nc(N)nc3[nH]cnc23)cc1)c1ccc2nc(/C=C(\C#N)C(=O)O)sc2c1` [probe 114] the same measures were 625 nm, 230, 328, 0.27 and below 0.001.
Turning to `CN(CCOC(=O)NCc1ccc(COc2nc(N)nc3[nH]cnc23)cc1)c1ccc(-c2ccc(/C=C(\C#N)C(=O)O)s2)cc1` [probe 117], in data set [1], the Emission wavelength was 620 nm and the “Fluorescence ratio” value is listed as 321. Also, on SNAP protein tags, the Fluorescence activation multiple worked out at 562 and the “Quantum yield of probe bound” value was determined as 0.39. Also, the “Quantum yield of free probe” value in data set [2] was below 0.001.
